Measurements as given in patent publication US8093386B2, “Thioaryl substituted inhibitors of zinc proteases and their use” (Bracco Imaging S.p.A, priority 2006, dated 2012).

Key:
Assay type in all cases: biochemical
[1] = biological target: T1, MMP-9 (Homo sapiens, UniProt P14780); experiment: In vitro fluorometric inhibition assay of MMPs: MMP-9
T1 construct: gift of Prof; Gillian Murphy (Oncology Department, Cambridge University, UK)
Protocol: (§1) Analysis of the In Vitro Inhibition Activity of Zinc Metalloproteinases: In Vitro Inhibition of MMMPs
The human recombinant Progelatinase A (pro-MMP-2), B (pro-MMP-9), MMP-14cd and MMP-16cd, were provided by Prof. Gillian Murphy (Oncology Department, Cambridge University, UK); pro-MMP-1, pro-MMP-3, pro-MMP-7, pro-MMP-8, pro-MMP-13 and pro-MMP-14 were bought from Calbiochem. […] Pro-MMP-14 and pro-MMP-3 were activated with trypsin 5 μg/ml for 15 min at 37° C. followed the soybean trypsin inhibitor (SBTI) 23 μg/ml for pro-MMP-14 and 62 μg/ml for pro-MMP-3. The catalytic domains of MMP-14 and MMP-16 were utilized without activation.
For the assay measurements, the stock solutions of the inhibitor (DMSO, 100 mM) were further diluted up to 7 different concentrations (0.01 nM-300 μM) for each MMP, in the buffer for the fluorometric assay (FAB: Tris 50 mM, pH=7.5, NaCl 150 mM, CaCl2 10 mM, Brij 35 0.05% and DMSO 1%). […] After the addition of solution of fluorogenic substrate 200 μM Mca-Arg-Pro-Lys-Pro-Val-Glu-Nva-Trp-Arg-Lys(Dnp)-NH2 (Sigma) for MMP-3 and Mca-Lys-Pro-Leu-Gly-Leu-Dpa-Ala-Arg-NH2 (Bachem) for all the other enzymes in DMSO (final concentration 2 μM), the hydrolysis were monitored every 15 sec for 20 min, recording the increase in fluorescence (λex=325 nm, λem=400 nm) with a Molecular Device SpectraMax Gemini XS plates reader. The assays were made in triplicate in a total volume of 200 μl per well on 96 well-plates for microtitolation (Corning, black, NBS). The control wells were without inhibitor.
(§2) The inhibition activity of MMP was expressed in relative fluorescence unit (RFU). The percentage of inhibition was calculated using control reactions without inhibitor.
(§3) IC50 was determined using the formula: Vi/Vo=1/(1+[I]/IC50), wherein Vi is the initial rate of the substrate scission in presence of the inhibitor at the concentration [I] and Vo is the initial rate in the absence of inhibitor. The results were analyzed with the SoftMax Pro software and the GraFit software.

[2] = biological target: T2, MMP-2 (Homo sapiens, UniProt P08253); experiment: In vitro fluorometric inhibition assay of MMPs: MMP-2
T2 construct: gift of Prof; Gillian Murphy (Oncology Department, Cambridge University, UK)
T2 sequence (P08253 110-660): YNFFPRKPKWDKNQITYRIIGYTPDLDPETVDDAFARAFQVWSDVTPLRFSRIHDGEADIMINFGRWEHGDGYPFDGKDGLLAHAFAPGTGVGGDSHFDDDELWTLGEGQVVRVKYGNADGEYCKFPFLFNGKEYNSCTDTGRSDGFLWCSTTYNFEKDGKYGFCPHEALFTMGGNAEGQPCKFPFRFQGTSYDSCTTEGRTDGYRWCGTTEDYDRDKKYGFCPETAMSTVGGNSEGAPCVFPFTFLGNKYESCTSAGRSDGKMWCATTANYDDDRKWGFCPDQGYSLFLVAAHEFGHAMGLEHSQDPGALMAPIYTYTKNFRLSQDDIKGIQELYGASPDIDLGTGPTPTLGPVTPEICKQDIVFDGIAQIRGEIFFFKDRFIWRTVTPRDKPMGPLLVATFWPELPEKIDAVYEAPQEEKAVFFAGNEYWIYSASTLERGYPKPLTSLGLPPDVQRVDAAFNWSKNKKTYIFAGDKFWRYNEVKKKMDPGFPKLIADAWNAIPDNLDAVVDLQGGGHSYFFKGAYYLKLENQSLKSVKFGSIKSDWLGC
Protocol: as §1
(§4) The human recombinant Progelatinase A (pro-MMP-2), B (pro-MMP-9), MMP-14cd and MMP-16cd, were provided by Prof. Gillian Murphy (Oncology Department, Cambridge University, UK); pro-MMP-1, pro-MMP-3, pro-MMP-7, pro-MMP-8, pro-MMP-13 and pro-MMP-14 were bought from Calbiochem. The proenzymes were activated immediately before the use with p-aminophenylmercuric acetate (APMA 2 mM for 1 h at 37° C. for MMP-1, MMP-2 and MMP-8, 1 mM for 1 h at 37° C. for MMP-9 and MMP-7, 1 mM for 30 min at 37° C. for MMP-13). Pro-MMP-14 and pro-MMP-3 were activated with trypsin 5 μg/ml for 15 min at 37° C. followed the soybean trypsin inhibitor (SBTI) 23 μg/ml for pro-MMP-14 and 62 μg/ml for pro-MMP-3. The catalytic domains of MMP-14 and MMP-16 were utilized without activation.
(§5) For the assay measurements, the stock solutions of the inhibitor (DMSO, 100 mM) were further diluted up to 7 different concentrations (0.01 nM-300 μM) for each MMP, in the buffer for the fluorometric assay (FAB: Tris 50 mM, pH=7.5, NaCl 150 mM, CaCl2 10 mM, Brij 35 0.05% and DMSO 1%). The solutions of activated enzyme (final concentrations 2.9 nM for MMP-2, 2.7 nM for MMP-9, 2.4 nM for MMP-7, 1 nM for MMP-14 and MMP-3, 1.5 nM for MMP-8 and MMP-16cd, 0.84 nM for MMP-14cd, 0.66 nM for MMP-13 and 0.20 nM for MMP-1) and of inhibitor were incubated in the assay buffer for 4 h at 25° C. After the addition of solution of fluorogenic substrate 200 μM Mca-Arg-Pro-Lys-Pro-Val-Glu-Nva-Trp-Arg-Lys(Dnp)-NH2 (Sigma) for MMP-3 and Mca-Lys-Pro-Leu-Gly-Leu-Dpa-Ala-Arg-NH2 (Bachem) for all the other enzymes in DMSO (final concentration 2 μM), the hydrolysis were monitored every 15 sec for 20 min, recording the increase in fluorescence (λex=325 nm, λem=400 nm) with a Molecular Device SpectraMax Gemini XS plates reader. The assays were made in triplicate in a total volume of 200 μl per well on 96 well-plates for microtitolation (Corning, black, NBS). The control wells were without inhibitor.
as §2, §3

[3] = biological target: T3, MMP-1 (Homo sapiens, UniProt P03956); experiment: In vitro fluorometric inhibition assay of MMPs: MMP-1; settings: Table I, cells marked (*)
T3 construct: purchased Calbiochem
T3 sequence (P03956 100-469): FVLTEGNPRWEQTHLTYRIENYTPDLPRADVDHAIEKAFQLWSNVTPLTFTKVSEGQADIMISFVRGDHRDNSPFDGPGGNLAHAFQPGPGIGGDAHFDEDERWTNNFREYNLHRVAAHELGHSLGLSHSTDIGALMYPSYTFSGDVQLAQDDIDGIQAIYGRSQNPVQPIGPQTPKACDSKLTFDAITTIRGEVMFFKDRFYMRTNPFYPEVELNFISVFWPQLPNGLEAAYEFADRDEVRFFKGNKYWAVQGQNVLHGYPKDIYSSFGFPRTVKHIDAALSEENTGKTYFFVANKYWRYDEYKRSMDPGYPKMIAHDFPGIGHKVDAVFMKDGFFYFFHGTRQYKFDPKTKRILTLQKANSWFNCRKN
Protocol: as §1, §4, §5, §2, §3

[4] = biological target: T4, TACE (ADAM17) (Homo sapiens, UniProt P78536); experiment: Inhibition of ADAMs: activity on TACE (ADAM17), fluorometric assay
T4 construct: purchased CalBiochem
Protocol: Inhibition of ADAMS: Activity on TACE (ADAM17) Method 1: (only TACE)
The human recombinant TACE, from CalBiochem, was dissolved in FAB buffer (Tris 50 mM, pH=7.5, NaCl 150 mM, CaCl2 10 mM, Brij 35 0.05% and DMSO 1%) at the concentration of 200 μg/mL (2.85 μM) as stock solution. For the assay measurements, the stock solutions of the inhibitor (DMSO, 100 mM) were further diluted up to seven different concentrations (0.01 nM-300 μM) in FAB buffer. A solution of the enzyme (final concentration 3 nM) and the solutions of the inhibitors at different concentrations were incubated in FAB for 20 minutes at 25° C. After the addition of a 200 μM solution of the substrate Mca-Lys-Pro-Leu-Gly-Leu-Dap(Dnp)-Ala-Arg-NH2 (Bachem) in DMSO (final concentration 2 μM), the hydrolysis was monitored for 20 min, recording the increase in fluorescence (λex=325 nm, λem=400 nm) using a Molecular Device SpectraMax Gemini XS plates reader. The assays were made in triplicate in a total volume of 200 μl per well, on 96 well microplates (Corning, black, NBS). The inhibition activity of TACE was expressed in relative fluorescent units (RFU). The percentage of inhibition was calculated based in respect to the blanks control without inhibitor. The IC50 was determined following the equation: Vi/Vo=1/(1+[I]/IC50), where Vi is the initial rate of the hydrolysis of the substrate in the presence of the inhibitor at the concentration [I] and Vo is the initial rate in the absence of inhibitor. The results were analysed using the software SoftMax Pro and GraFit.

T4 sequence (P78536 215-671 limits assumed): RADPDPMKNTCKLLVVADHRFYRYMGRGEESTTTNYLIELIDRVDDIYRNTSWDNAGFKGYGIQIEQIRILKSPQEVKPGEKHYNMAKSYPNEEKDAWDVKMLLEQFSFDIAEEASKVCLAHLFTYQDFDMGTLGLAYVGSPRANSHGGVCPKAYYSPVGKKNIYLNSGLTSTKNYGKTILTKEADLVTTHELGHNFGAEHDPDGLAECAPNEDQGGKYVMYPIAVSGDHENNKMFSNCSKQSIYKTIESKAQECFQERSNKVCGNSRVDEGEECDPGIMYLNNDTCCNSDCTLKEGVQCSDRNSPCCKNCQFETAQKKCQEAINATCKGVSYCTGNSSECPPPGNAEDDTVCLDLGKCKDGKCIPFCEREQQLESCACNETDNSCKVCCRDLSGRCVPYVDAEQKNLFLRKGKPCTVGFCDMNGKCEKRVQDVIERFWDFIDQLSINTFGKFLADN
T1 sequence (P14780 107-707 limits assumed): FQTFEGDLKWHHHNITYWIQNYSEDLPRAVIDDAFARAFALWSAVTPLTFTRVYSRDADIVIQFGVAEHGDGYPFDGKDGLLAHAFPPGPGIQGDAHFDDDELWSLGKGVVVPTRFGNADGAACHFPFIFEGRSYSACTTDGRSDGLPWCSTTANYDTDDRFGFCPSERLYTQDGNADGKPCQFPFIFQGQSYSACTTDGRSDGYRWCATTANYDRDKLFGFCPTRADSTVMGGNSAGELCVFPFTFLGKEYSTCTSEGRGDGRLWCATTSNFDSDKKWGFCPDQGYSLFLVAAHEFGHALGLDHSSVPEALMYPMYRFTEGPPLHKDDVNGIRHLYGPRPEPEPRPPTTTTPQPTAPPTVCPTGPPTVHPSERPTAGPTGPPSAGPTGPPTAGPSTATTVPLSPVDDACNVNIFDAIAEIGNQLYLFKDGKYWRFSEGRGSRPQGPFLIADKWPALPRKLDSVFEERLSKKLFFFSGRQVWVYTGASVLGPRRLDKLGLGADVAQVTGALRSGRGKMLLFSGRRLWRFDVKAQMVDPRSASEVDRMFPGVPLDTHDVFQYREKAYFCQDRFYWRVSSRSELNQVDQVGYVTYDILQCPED

Row | SMILES | IC50 ([1]; Table I, cells marked (*)) [nM] | IC50 ([2]; Table I, cells marked (*)) [nM] | IC50 [3] [nM] | IC50 ([4]; Table IV) [nM] | IC50 ([2]; Table IV) [nM] | IC50 ([2]; text b547) [nM] | IC50 ([4]; text b547) [nM] | IC50 ([1]; Table IV) [nM]
1 | O=C(Cc1ccccc1Sc1ccc(-c2ccccc2)cc1)NO [Compound 21a] | 1200 ± 200 | 41.1 ± 1.4 | 171000 ± 5000 | 13400 ± 1930 |  |  |  | 
2 | COc1ccc(Sc2ccccc2CC(=O)NO)cc1 [Compound 21b, N-hydroxy-2-(2-(4-methoxyphenylthio)phenyl)acetamide] |  |  |  | 10200 ± 670 | 6200 ± 300 |  |  | 
3 | CC#CCOc1ccc(Sc2ccccc2CC(=O)NO)cc1 [Compound 21c, 2-(2-(4-(but-2-iniloxy)phenylthio)phenyl)-N-hydroxyacetamide] |  |  |  |  |  | 1450 ± 33 | 462 ± 21 | 
4 | COc1ccc(-c2ccc(Sc3ccccc3CC(=O)NO)cc2)cc1 [Compound 24, N-hydroxy-2-(2-(4′-methoxybiphenyl-4-ylthio)phenyl)acetamide] | 120 ± 17 | 6.8 ± 0.53 |  | 46200 ± 5340 | 6.8 ± 0.53 |  |  | 120 ± 17
